How the values were obtained:
sEH = molecular target: T1, sEH (Homo sapiens, UniProt P34913); assay: In vitro sEH activity assay (PHOME substrate, fluorescence); assay type: biochemical; design: sEH inhibitory activity (in words): dose or concentration left out as unconfirmed
T1 sequence (P34913 1-555): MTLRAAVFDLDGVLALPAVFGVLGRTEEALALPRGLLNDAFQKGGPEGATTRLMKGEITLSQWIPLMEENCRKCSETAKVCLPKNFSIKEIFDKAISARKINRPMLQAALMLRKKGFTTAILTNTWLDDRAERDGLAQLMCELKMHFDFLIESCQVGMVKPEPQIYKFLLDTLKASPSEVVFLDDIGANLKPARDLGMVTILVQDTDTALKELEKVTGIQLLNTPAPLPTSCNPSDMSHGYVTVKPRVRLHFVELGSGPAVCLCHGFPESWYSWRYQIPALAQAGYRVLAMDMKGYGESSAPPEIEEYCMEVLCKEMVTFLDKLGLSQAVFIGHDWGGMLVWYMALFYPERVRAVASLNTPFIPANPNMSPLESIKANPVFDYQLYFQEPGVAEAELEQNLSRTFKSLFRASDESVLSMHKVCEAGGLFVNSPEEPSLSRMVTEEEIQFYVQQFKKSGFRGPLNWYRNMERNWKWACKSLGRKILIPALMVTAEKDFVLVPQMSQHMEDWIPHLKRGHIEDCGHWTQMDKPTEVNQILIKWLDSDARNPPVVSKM
Method: Hydrolysis of PHOME by sEH results in the release of cyanohydrins that further decomposes to cyanide ion and 6-methoxy-2-naphthaldehyde (highly fluorescent). The fluorescence was analyzed at an excitation and emission wavelength of 330 nm and 465 nm respectively.

[1] = test system: Triton WR-1339 induced hyperlipidaemic rats; assay: TBAR and SOD level in hepatic tissue, Triton WR-1339 induced hyperlipidemia; assay type: in vivo, rat
Method: Wistar albino male rats were divided into four experimental groups (I, II, III and IV). Groups II-IV were treated with intraperitoneal injection of Triton WR-1339 (200 mg/kg in 2% gum acacia) in 12 h fasted rats to induce hyperlipidemia. Group III and IV were orally administered with Mebeverine twice daily for 3 days at 10 mg/kg and 20 mg/kg. After 48 h, induction of hyperlipidemia blood serum was investigated for total cholesterol and triglycerides. Blood samples were collected from all experimental rats on day 6 (4 days after start of treatment), and, subsequently, serum was separated for analysis of serum lipid profile parameters and CRI/AI. Liver was excised and stored at −80° C. until biochemical parameters in hepatic tissue samples were analysed. The results are tabulated below in Table 6 and plotted in FIGS. 7 (a-e) and 8.
In addition, the effect on oxidative stress markers on hepatic tissue were also observed. The results are shown in Table 7 and plotted in FIGS. 9 and 10.

[2] = test system: angiotensin-II induced hypertensive rats; assay: Angiotensin II induced hypertension, blood pressure; assay type: in vivo, rat
Method: Wistar albino male rats were divided into four experimental groups (I, II, III and IV). Groups II-IV were infused with Angiotensin II at a continuous rate via subcutaneously implanted osmotic mini pump for 7 days. After induction of high blood pressure, (>140/90 mm of Hg), Groups III and IV were administered with mebeverine twice daily for five consecutive days at 10 mg/kg and 20 mg/kg doses respectively. At the end of this experimental period SAP, DAP and MAP were measured. The results are tabulated below in Tables 3A, 3B, and 3C, respectively, and are plotted in FIGS. 3a, 3b and 3c.

CCN(CCCCOC(=O)c1ccc(OC)c(OC)c1)C(C)Cc1ccc(OC)cc1 (stereo not shown) [Mebeverine]
sEH inhibitory activity (in words) (sEH; dose-dependent): potent inhibitor of sEH enzyme | IC50 (sEH; sEH, PHOME substrate): 3.9 nM | SOD ([1]; 10 mg/kg): 65.13 ± 0.22 U/g protein | TBAR ([1]; 10 mg/kg): 0.78 ± 0.01 nmol/mg protein | SOD ([1]; 20 mg/kg): 87.27 ± 0.30 U/g protein | TBAR ([1]; 20 mg/kg): 0.70 ± 0.01 nmol/mg protein | DAP ([2]; 10 mg/kg twice daily, D 0): 189 ± 13.43 mm Hg | MAP ([2]; 10 mg/kg twice daily, D 0): 200 ± 8.40 mm Hg | SAP ([2]; 10 mg/kg twice daily, D 0): 213 ± 6.360 mm Hg | DAP ([2]; 10 mg/kg twice daily, D 3): 168 ± 6.86 mm Hg | MAP ([2]; 10 mg/kg twice daily, D 3): 182 ± 12.02 mm Hg | SAP ([2]; 10 mg/kg twice daily, D 3): 208 ± 6.970 mm Hg | DAP ([2]; 10 mg/kg twice daily, D 4): 95 ± 11.70 mm Hg | MAP ([2]; 10 mg/kg twice daily, D 4): 110 ± 16.78 mm Hg | SAP ([2]; 10 mg/kg twice daily, D 4): 146 ± 5.370 mm Hg | DAP ([2]; 10 mg/kg twice daily, D 5): 92 ± 4.24 mm Hg | MAP ([2]; 10 mg/kg twice daily, D 5): 108 ± 1.07 mm Hg | SAP ([2]; 10 mg/kg twice daily, D 5): 140 ± 2.120 mm Hg | DAP ([2]; 20 mg/kg twice daily, D 0): 152 ± 1.40 mm Hg | MAP ([2]; 20 mg/kg twice daily, D 0): 170 ± 4.30 mm Hg | SAP ([2]; 20 mg/kg twice daily, D 0): 193 ± 3.530 mm Hg | DAP ([2]; 20 mg/kg twice daily, D 3): 109 ± 28.80 mm Hg | MAP ([2]; 20 mg/kg twice daily, D 3): 128 ± 7.07 mm Hg | SAP ([2]; 20 mg/kg twice daily, D 3): 147 ± 5.600 mm Hg | DAP ([2]; 20 mg/kg twice daily, D 4): 86 ± 1.70 mm Hg | MAP ([2]; 20 mg/kg twice daily, D 4): 98 ± 1.51 mm Hg | SAP ([2]; 20 mg/kg twice daily, D 4): 123 ± 7.28 mm Hg | DAP ([2]; 20 mg/kg twice daily, D 5): 82 ± 3.53 mm Hg | MAP ([2]; 20 mg/kg twice daily, D 5): 92 ± 2.82 mm Hg | SAP ([2]; 20 mg/kg twice daily, D 5): 119 ± 7.07 mm Hg | Effect on high blood pressure (in words) ([2]; both 10 mg/kg and 20 mg/kg, P<0.001): reduces the high blood pressure

Source: patent publication US11766419B2, “Mebeverine as soluble epoxide hydrolase inhibitor” (Banasthali Vidyapith, priority 2021, dated 2023)
